Tested on: human retinal pericytes (HRPC)
Assay: Human retinal pericyte proliferation assay (Methylene blue, OD650)
Type: cell-based
Details: 5% FBS
Method: In addition to studies with primary cell cultures of bovine retinal pericytes described above, experiments were performed with a human cell line obtained from Clonetics (San Diego, Calif.) of retinal pericytes (catalog no. CC-2542 PyCRt). These human retinal pericytes (HRPC) were cultured in Dulbecco's modified Eagle's medium (DMEM, Gibco BRL, Grand Island, N.Y.) with 5.6 mM glucose and 20% fetal bovine serum (FBS, Gibco BRL, Grand Island, N.Y.).
Proliferation assays were performed as follows: HRPC were plated onto 24-well culture plates (3000 cells/well) in 5 or 10% FBS-DMEM with 5.6 mM glucose and incubated overnight. The cells were treated once with vehicle alone or with vehicle and several concentrations of XMP.627 ([SEQ ID NO: 4]), XMP.664 ([SEQ ID NO: 5]), XMP.679 ([SEQ ID NO: 3]), or XMP.728 ([SEQ ID NO: 6]) for 5 or 6 days. The medium was not changed, nor were additional amounts of test compounds added as described in the experiments of part A above. The cells were fixed and stained with Methylene blue and proliferation assayed by observation at OD650.

## XMP.679: BPI-derived peptide derived from BPI domain II, SEQ ID NO: 3 (KLFKAQAKAKG; XMP.679; listed as Homo sapiens)
10 μg/ml and higher
  effect on HRPC growth: slight growth inhibitory effect
  concentration of maximum HRPC proliferation: approximately 5 μg/ml
Approximately 0.5, 1, 5, 8 μg/ml
  effect on HRPC proliferation: increased HRPC proliferation in a dose responsive manner

From patent publication US7291451B2, “Modulation of pericyte proliferation” (XOMA Technology Ltd., priority 2000, dated 2007)
